Experimental data: ChEMBL document CHEMBL3046609, “Herbicidal properties of the thaxtomin group of phytotoxins” (2001)
Calls of active or inactive are those of the source. The calls are words filed in the database; no cut-off is given here.

Tests used:
[1] = tested on: Ipomoea hederacea; test: Post-emergence herbicidal activity against Ipomoea hederacea (ivy-leaved morning glory) assessed as visual injury at 0.5 kg/ha after 9 days relative to control; type: functional
[2] = tested on: Abutilon theophrasti; test: Herbicidal activity against Abutilon theophrasti (velvetleaf) assessed as visual injury at 1 ug/seedling applied to meristem after 1 week relative to control; type: functional
[3] = tested on: Helianthus annuus; test: Post-emergence growth inhibition of Helianthus annuus (sunflower) assessed as visual injury at 2 kg/ha after 9 days relative to control; type: functional; set-up: scale not given: the % may be the effect or the level left
[4] = tested on: Echinochloa crus-galli; test: Post-emergence herbicidal activity against Echinochloa crus-galli (barnyard grass) after 9 days; type: functional
[5] = tested on: Agrostis stolonifera var. palustris; test: Herbicidal activity against Agrostis stolonifera var. palustris assessed as visual injury at 0.008 ppm after 9 days relative to control; type: functional
[6] = tested on: Echinochloa crus-galli; test: Post-emergence herbicidal activity against Echinochloa crus-galli (barnyard grass) assessed as meristematic at 0.5 to 4 kg/ha after 9 days; type: functional, organism-based
[7] = tested on: Helianthus annuus; test: Pre-emergence growth inhibition of Helianthus annuus (sunflower) assessed as visual injury at 1 kg/ha after 16 days relative to control; type: functional; set-up: scale not given: the % may be the effect or the level left
[8] = tested on: Lemna minor; test: Herbicidal activity against Lemna minor (common duckweed) after 9 days; type: functional
[9] = tested on: Abutilon theophrasti; test: Herbicidal activity against Abutilon theophrasti (velvetleaf) assessed as visual injury at 10 ug/seedling applied to meristem after 1 week relative to control; type: functional
[10] = tested on: Helianthus annuus; test: Pre-emergence growth inhibition of Helianthus annuus (sunflower) assessed as stunting at 0.5 to 4 kg/ha after 16 days; type: functional, organism-based
[11] = tested on: Echinochloa crus-galli; test: Pre-emergence herbicidal activity against Echinochloa crus-galli (barnyard grass) assessed as meristematic at 0.5 to 4 kg/ha after 16 days; type: functional, organism-based
[12] = tested on: Abutilon theophrasti; test: Herbicidal activity against Abutilon theophrasti (velvetleaf) assessed as visual injury at 10 ug/seedling applied to leaf after 1 week relative to control; type: functional
[13] = tested on: Echinochloa crus-galli; test: Post-emergence herbicidal activity against Echinochloa crus-galli (barnyard grass) assessed as stunting at 0.5 to 4 kg/ha after 9 days; type: functional, organism-based
[14] = tested on: Lemna minor; test: Herbicidal activity against Lemna minor (common duckweed) assessed as visual injury at 1 ppm after 9 days relative to control; type: functional
[15] = tested on: Ipomoea hederacea; test: Pre-emergence herbicidal activity against Ipomoea hederacea (ivy-leaved morning glory) after 16 days; type: functional
[16] = tested on: Echinochloa crus-galli; test: Pre-emergence herbicidal activity against Echinochloa crus-galli (barnyard grass) assessed as stunting at 0.5 to 4 kg/ha after 16 days; type: functional, organism-based
[17] = tested on: Helianthus annuus; test: Post-emergence growth inhibition of Helianthus annuus (sunflower) after 9 days; type: functional
[18] = tested on: Agrostis stolonifera var. palustris; test: Herbicidal activity against Agrostis stolonifera var. palustris assessed as visual injury at 0.2 ppm after 9 days relative to control; type: functional
[19] = tested on: Ipomoea hederacea; test: Herbicidal activity against Ipomoea hederacea (ivy-leaved morning glory) assessed as visual injury at 100 ug/seedling applied to meristem after 1 week relative to control; type: functional
[20] = tested on: Helianthus annuus; test: Pre-emergence growth inhibition of Helianthus annuus (sunflower) assessed as visual injury at 0.5 kg/ha after 16 days relative to control; type: functional; set-up: scale not given: the % may be the effect or the level left
[21] = tested on: Avena fatua; test: Pre-emergence growth inhibition of Avena fatua assessed as visual injury at 2 kg/ha after 16 days relative to control; type: functional; set-up: scale not given: the % may be the effect or the level left
[22] = tested on: Avena fatua; test: Post-emergence growth inhibition of Avena fatua assessed as visual injury at 2 kg/ha after 9 days relative to control; type: functional; set-up: scale not given: the % may be the effect or the level left
[23] = tested on: Lemna minor; test: Herbicidal activity against Lemna minor (common duckweed) assessed as visual injury at 0.04 ppm after 9 days relative to control; type: functional
[24] = tested on: Ipomoea hederacea; test: Pre-emergence herbicidal activity against Ipomoea hederacea (ivy-leaved morning glory) assessed as visual injury at 0.5 kg/ha after 16 days relative to control; type: functional
[25] = tested on: Echinochloa crus-galli; test: Pre-emergence herbicidal activity against Echinochloa crus-galli (barnyard grass) assessed as visual injury at 4 kg/ha after 16 days relative to control; type: functional
[26] = tested on: Ipomoea hederacea; test: Post-emergence herbicidal activity against Ipomoea hederacea (ivy-leaved morning glory) assessed as visual injury at 2 kg/ha after 9 days relative to control; type: functional
[27] = tested on: Helianthus annuus; test: Post-emergence growth inhibition of Helianthus annuus (sunflower) assessed as stunting at 0.5 to 4 kg/ha after 9 days; type: functional, organism-based
[28] = tested on: Ipomoea hederacea; test: Pre-emergence herbicidal activity against Ipomoea hederacea (ivy-leaved morning glory) assessed as stunting at 0.5 to 4 kg/ha after 16 days; type: functional, organism-based
[29] = tested on: Abutilon theophrasti; test: Herbicidal activity against Abutilon theophrasti (velvetleaf) assessed as visual injury at 100 ug/seedling applied to meristem after 1 week relative to control; type: functional
[30] = tested on: Ipomoea hederacea; test: Herbicidal activity against Ipomoea hederacea (ivy-leaved morning glory) assessed as visual injury at 10 ug/seedling applied to meristem after 1 week relative to control; type: functional
[31] = tested on: Helianthus annuus; test: Post-emergence growth inhibition of Helianthus annuus (sunflower) assessed as visual injury at 1 kg/ha after 9 days relative to control; type: functional; set-up: scale not given: the % may be the effect or the level left
[32] = tested on: Avena fatua; test: Pre-emergence growth inhibition of Avena fatua assessed as meristematic at 0.5 to 4 kg/ha after 16 days; type: functional, organism-based
[33] = tested on: Helianthus annuus; test: Pre-emergence growth inhibition of Helianthus annuus (sunflower) assessed as visual injury at 2 kg/ha after 16 days relative to control; type: functional; set-up: scale not given: the % may be the effect or the level left
[34] = tested on: Agrostis stolonifera var. palustris; test: Herbicidal activity against Agrostis stolonifera var. palustris assessed as visual injury at 0.04 ppm after 9 days relative to control; type: functional
[35] = tested on: Avena fatua; test: Pre-emergence growth inhibition of Avena fatua assessed as visual injury at 4 kg/ha after 16 days relative to control; type: functional; set-up: scale not given: the % may be the effect or the level left
[36] = tested on: Arabidopsis thaliana; test: Growth inhibition of Arabidopsis thaliana var. Columbia assessed as root tip puffing after 9 days by agarose-based test; type: functional, organism-based
[37] = tested on: Lemna minor; test: Herbicidal activity against Lemna minor (common duckweed) assessed as visual injury at 25 ppm after 9 days relative to control; type: functional
[38] = tested on: Echinochloa crus-galli; test: Pre-emergence herbicidal activity against Echinochloa crus-galli (barnyard grass) assessed as visual injury at 2 kg/ha after 16 days relative to control; type: functional
[39] = tested on: Avena fatua; test: Post-emergence growth inhibition of Avena fatua assessed as visual injury at 0.5 kg/ha after 9 days relative to control; type: functional; set-up: scale not given: the % may be the effect or the level left
[40] = tested on: Agrostis stolonifera var. palustris; test: Herbicidal activity against Agrostis stolonifera var. palustris after 9 days by agarose-based test; type: functional
[41] = tested on: Helianthus annuus; test: Post-emergence growth inhibition of Helianthus annuus (sunflower) assessed as visual injury at 0.5 kg/ha after 9 days relative to control; type: functional; set-up: scale not given: the % may be the effect or the level left
[42] = tested on: Helianthus annuus; test: Herbicidal activity against Helianthus annuus (sunflower) assessed as visual injury at 10 ug/seedling applied to cotyledon after 1 week relative to control; type: functional
[43] = tested on: Agrostis stolonifera var. palustris; test: Herbicidal activity against Agrostis stolonifera var. palustris assessed as root tip puffing after 9 days by agarose-based test; type: functional, organism-based
[44] = tested on: Ipomoea hederacea; test: Herbicidal activity against Ipomoea hederacea (ivy-leaved morning glory) assessed as visual injury at 1 ug/seedling applied to cotyledon after 1 week relative to control; type: functional
[45] = tested on: Avena fatua; test: Pre-emergence growth inhibition of Avena fatua assessed as visual injury at 1 kg/ha after 16 days relative to control; type: functional; set-up: scale not given: the % may be the effect or the level left
[46] = tested on: Lemna minor; test: Herbicidal activity against Lemna minor (common duckweed) assessed as visual injury at 5 ppm after 9 days relative to control; type: functional
[47] = tested on: Helianthus annuus; test: Post-emergence growth inhibition of Helianthus annuus (sunflower) assessed as wilting at 0.5 to 4 kg/ha after 9 days; type: functional, organism-based
[48] = tested on: Arabidopsis thaliana; test: Growth inhibition of Arabidopsis thaliana var. Columbia assessed as stunting after 9 days by agarose-based test; type: functional, organism-based
[49] = tested on: Echinochloa crus-galli; test: Post-emergence herbicidal activity against Echinochloa crus-galli (barnyard grass) assessed as visual injury at 1 kg/ha after 9 days relative to control; type: functional

CN1C(=O)[C@](O)(Cc2cccc(O)c2)N(C)C(=O)[C@@H]1Cc1c[nH]c2cccc([N+](=O)[O-])c12 [THAXTOMIN A]
Activity [1]: 70%
Activity [2]: 20%
Activity [3]: 85%
GR50 [4]: 2 kg/ha
Activity [5]: 50%
Activity [6]: Active
Activity [7]: 100%
GR50 [8]: 5 ppb
Activity [9]: 75%
Activity [10]: Active
Activity [11]: Active
Activity [12]: 0%
Activity [13]: Active
Activity [14]: 100%
GR50 [15]: <500 g/ha
Activity [16]: Active
GR50 [17]: <500 g/ha
Activity [18]: 100%
Activity [19]: 80%
Activity [20]: 70%
Activity [21]: 100%
Activity [22]: 20%
Activity [23]: 70%
Activity [24]: 100%
Activity [25]: 100%
Activity [26]: 80%
Activity [27]: Active
Activity [28]: Active
Activity [29]: 80%
Activity [30]: 80%
Activity [31]: 85%
Activity [32]: Active
Activity [33]: 100%
Activity [34]: 80%
Activity [35]: 100%
growth inhibition (GI) [36]: Active
Activity [37]: 100%
Activity [38]: 100%
Activity [39]: 0%
I50 [40]: 25 ppb
Activity [41]: 75%
Activity [42]: 0%
Activity [43]: Active
Activity [44]: 0%
Activity [45]: 100%
Activity [46]: 100%
Activity [47]: Active
growth inhibition (GI) [48]: Active
Activity [49]: 20%
